Results taken from publication PMC4877593, “Design and Synthesis of Potent in Vitro and in Vivo Anticancer Agents Based on 1-(3′,4′,5′-Trimethoxyphenyl)-2-Aryl-1H-Imidazole” (Scientific Reports, 2016).
Like-named read-outs stand apart in the source and are kept apart here.

Legend:
HeLa = test: In vitro antiproliferative activity (MTT), HeLa; assay type: cell-based; details: Homo sapiens, tumor cell proliferation, 72 h, mean ± SE
Procedure: (§1) Human T-cell leukemia (CCRF-CEM and Jurkat) and human B-cell leukemia (SEM) cells were grown in RPMI-1640 medium (Gibco, Milano, Italy). Breast adenocarcinoma (MCF7), human cervix carcinoma (HeLa), and human colon adenocarcinoma (HT-29) cells were grown in DMEM medium (Gibco, Milano, Italy), all supplemented with 115 units/mL penicillin G (Gibco, Milano, Italy), 115 μg/mL streptomycin (Invitrogen, Milano, Italy), and 10% fetal bovine serum (Invitrogen, Milano, Italy). Stock solutions (10 mM) of the different compounds were obtained by dissolving them in dimethyl sulfoxide (DMSO). Individual wells of a 96-well tissue culture microtiter plate were inoculated with 100 μL of complete medium containing 8 × 10^3 cells. The plates were incubated at 37 °C in a humidified 5% CO2 incubator for 18 h prior to the experiments. After medium removal, 100 μL of fresh medium containing the test compound at different concentrations was added to each well in triplicate and incubated at 37 °C for 72 h. The percentage of DMSO in the medium never exceeded 0.25%. This was also the maximum DMSO concentration in all cell-based assays described below. […] Different concentrations of the test compounds were added, and viability was determined 72 h later by the MTT test. For cytotoxicity evaluations in resting PBL cultures, non-adherent cells were resuspended (5 × 10^5 cells/mL) and treated for 72 h with the test compounds, as described above.

HT-29 = test: In vitro antiproliferative activity (MTT), HT-29; assay type: cell-based; details: Homo sapiens, tumor cell proliferation, 72 h, mean ± SE
Procedure: as §1

A549 = test: In vitro antiproliferative activity (MTT), A549; assay type: cell-based; details: Homo sapiens, tumor cell proliferation, 72 h, mean ± SE
Procedure: as §1

MCF-7 = test: In vitro antiproliferative activity (MTT), MCF-7; assay type: cell-based; details: Homo sapiens, MCF7, tumor cell proliferation, 72 h, mean ± SE
Procedure: as §1

Jurkat = test: In vitro antiproliferative activity (MTT), Jurkat; assay type: cell-based; details: Homo sapiens, tumor cell proliferation, 72 h, mean ± SE
Procedure: as §1

RS4;11 = test: In vitro antiproliferative activity (MTT), RS4;11; assay type: cell-based; details: Homo sapiens, tumor cell proliferation, 72 h, mean ± SE
HL-60 = test: In vitro antiproliferative activity (MTT), HL-60; assay type: cell-based; details: Homo sapiens, tumor cell proliferation, 72 h, mean ± SE
[1] = tested on: panel of seven human tumor cell lines; test: Antiproliferative activity across the panel of seven human tumor cell lines; assay type: cell-based
Procedure: as §1

bovine brain tubulin = test: Inhibition of tubulin polymerization (turbidimetry); assay type: biochemical
Procedure: To evaluate the effect of the compounds on tubulin assembly in vitro[22], varying concentrations of compounds were preincubated with 10 μM bovine brain tubulin in glutamate buffer at 30 °C and then cooled to 0 °C. After addition of 0.4 mM GTP (final concentration), the mixtures were transferred to 0 °C cuvettes in a recording spectrophotometer equipped with an electronic temperature controller and warmed to 30 °C. Tubulin assembly was followed turbidimetrically at 350 nm. […] The ability of the test compounds to inhibit colchicine binding to tubulin was measured as described, except that the reaction mixtures contained 1 μM tubulin, 5 μM [^3H]colchicine and 1 or 5 μM test compound.

tubulin = test: Inhibition of [3H]colchicine binding to tubulin; parameters: species or system bovine; details: tubulin 1 μM, [3H]colchicine 5 μM
Procedure: The ability of the test compounds to inhibit colchicine binding to tubulin was measured as described[22], except that the reaction mixtures contained 1 μM tubulin, 5 μM [^3H]colchicine and 1 or 5 μM test compound.

[2] = tested on: HCT-15 (human colon adenocarcinoma); details: cited from earlier work
[3] = tested on: NCI-H460 (human lung large cell carcinoma); details: cited from earlier work

## COc1cc(-n2ccnc2-c2ccc3ccccc3c2)cc(OC)c1OC [Compound 3c, reference compound]
HeLa
  IC50: 2 ± 0.14 nM
HT-29
  IC50: 3.6 ± 0.9 nM
A549
  IC50: 7.1 ± 1.5 nM
MCF-7
  IC50: 4.6 ± 2.3 nM
Jurkat
  IC50: 2.5 ± 0.9 nM
RS4;11
  IC50: 62.3 ± 10.3 nM
HL-60
  IC50: 24 ± 12.1 nM
[1]; average over the seven cell lines, read-out: average IC50 values
  IC50: 15 nM
[1]; range over seven cancer cell lines, read-out: IC50 values in the seven cell lines (range)
  IC50: 2 to 62.3 nM
Bovine brain tubulin; repeated beside the calculated energies, read-out: inhibition of tubulin polymerization IC50 (Table 4)
  IC50: 1800 nM
Bovine brain tubulin; tubulin at 10 μM, 20 min incubation, read-out: Tubulin assembly IC50 ± S.D.
  IC50: 1800 nM
tubulin
  Colchicine binding % inhibition ± S.D., 5 μM drug: 65 ± 4%
[2]
  IC50: 51 nM
[3]
  IC50: 57 nM
